Measured values from the NIST ThermoML archive (doi:10.1016/j.jct.2009.06.007).

Columns and labels:
[1] = xn = mol fraction of the nth substance listed; conditions: 298.15 K, 101 kPa, Liquid; for viscosity: Capillary tube (Ostwald / Ubbelohde) method; for mass density: Vibrating tube method
[2] = refractive index (Na D-line) (dimensionless); xn = mol fraction of the nth substance listed; conditions: 298.15 K, 101 kPa, Liquid, Standard Abbe refractometry
[3] = 298.15 K, 101.33 kPa, Liquid

COC(C)=O [methyl ethanoate] + CO
Conditions	mass density, [1] [kg/m3]	refractive index, [2]	viscosity, [1] [mPa·s]
x1 = 0.0939	810.62	1.3322	0.491
x1 = 0.1986	833.17	1.33757	0.452
x1 = 0.3009	851.78	1.34192	0.417
x1 = 0.4016	867.5	1.3456	0.393
x1 = 0.4943	880.02	1.34851	0.378
x1 = 0.5851	890.77	1.35095	0.369
x1 = 0.6941	902.17	1.35349	0.361
x1 = 0.7694	909.19	1.35503	0.358
x1 = 0.8875	918.93	1.35712	0.358

CCCCCCCCn1cc[n+](C)c1.O=S(=O)([N-]S(=O)(=O)C(F)(F)F)C(F)(F)F + COC(C)=O
Conditions	mass density, [1] [kg/m3]	refractive index, [2]	viscosity, [1] [mPa·s]
x2 = 0.0699	1314.77	1.4319	75.62
x2 = 0.1317	1308.87	1.43089	63.25
x2 = 0.1748	1304.45	1.43009	56.12
x2 = 0.2177	1299.57	1.42927	49.13
x2 = 0.3226	1285.83	1.42694	33.76
x2 = 0.4105	1271.88	1.42453	23.79
x2 = 0.5011	1253.68	1.42124	15.98
x2 = 0.6001	1228.33	1.41684	9.815
x2 = 0.6992	1193.95	1.41055	5.527
x2 = 0.7872	1151.29	1.40296	3.066
x2 = 0.8984	1067.39	1.387	1.206

CCCCCCCCn1cc[n+](C)c1.O=S(=O)([N-]S(=O)(=O)C(F)(F)F)C(F)(F)F
[3]
Conditions	mass density [kg/m3]	viscosity [mPa·s]
Capillary tube (Ostwald / Ubbelohde) method	–	92.51
Pycnometric method	1320.59	–

CCCCCCCCn1cc[n+](C)c1.O=S(=O)([N-]S(=O)(=O)C(F)(F)F)C(F)(F)F + CO
Conditions	mass density, [1] [kg/m3]	refractive index, [2]	viscosity, [1] [mPa·s]
x2 = 0.0654	1316.5	1.43207	78.34
x2 = 0.0863	1315.1	1.43188	74.57
x2 = 0.2134	1305.18	1.42995	53.65
x2 = 0.3138	1295.08	1.42809	40.77
x2 = 0.3873	1285.91	1.42619	32.92
x2 = 0.5038	1267.04	1.42266	22.27
x2 = 0.6155	1240.79	1.41741	14.57
x2 = 0.7018	1210.98	1.41157	9.493
x2 = 0.805	1154.04	1.40017	4.919
x2 = 0.902	1052.54	1.38017	2.144
